We go through 17 molecules from US20140005163A1 (NOVARTIS AG, priority 2010, published 2014).

One data set is described as follows: Solubility at pH 6.8. The following applies: pH 6.8, aqueous buffer, thermodynamic from solid; read-out: solubility. The data set is classed as physicochemical. The procedure, abridged: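 Solubility was measured at pH 6.8 following the cited Zhou et al. (2007) procedure.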
A further data set has as its target T1, PI3K alpha (Homo sapiens, UniProt P42336).
T1 construct: p85(iSH2) fusion partner (see partner chain) (N); His tag (C); made in house; host or cells: baculovirus; Tn5 (Trichoplusia ni) or TiniPro insect cells
In words: PI3K alpha kinase assay (Kinase-Glo luminescence). The data set is classed as biochemical. The procedure, abridged:
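PI3Kα construct EMV B1075 (10 nM final) was preincubated with 10 μg/mL phosphatidylinositol in 10 mM Tris-HCl pH 7.5, 3 mM MgCl2, 50 mM NaCl, 0.05% CHAPS, 1 mM DTT. Reaction started with 1 μM ATP, 60 min at room temperature; remaining ATP measured by Kinase-Glo luminescence. IC50 from 4-parameter logistic fit of 8-point titrations.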

The target of a further data set is T2, PI3K beta (Homo sapiens, UniProt P42338).
T2 construct: for the full-length p110-b subunit are generated and fused by overlapping PCR; p85(iSH2) fusion partner (see partner chain) (N); His tag (C); made in house; host or cells: baculovirus; Tn5 (Trichoplusia ni) or TiniPro insect cells
T2 sequence (P42338 with tags, fused parts or gaps limits assumed): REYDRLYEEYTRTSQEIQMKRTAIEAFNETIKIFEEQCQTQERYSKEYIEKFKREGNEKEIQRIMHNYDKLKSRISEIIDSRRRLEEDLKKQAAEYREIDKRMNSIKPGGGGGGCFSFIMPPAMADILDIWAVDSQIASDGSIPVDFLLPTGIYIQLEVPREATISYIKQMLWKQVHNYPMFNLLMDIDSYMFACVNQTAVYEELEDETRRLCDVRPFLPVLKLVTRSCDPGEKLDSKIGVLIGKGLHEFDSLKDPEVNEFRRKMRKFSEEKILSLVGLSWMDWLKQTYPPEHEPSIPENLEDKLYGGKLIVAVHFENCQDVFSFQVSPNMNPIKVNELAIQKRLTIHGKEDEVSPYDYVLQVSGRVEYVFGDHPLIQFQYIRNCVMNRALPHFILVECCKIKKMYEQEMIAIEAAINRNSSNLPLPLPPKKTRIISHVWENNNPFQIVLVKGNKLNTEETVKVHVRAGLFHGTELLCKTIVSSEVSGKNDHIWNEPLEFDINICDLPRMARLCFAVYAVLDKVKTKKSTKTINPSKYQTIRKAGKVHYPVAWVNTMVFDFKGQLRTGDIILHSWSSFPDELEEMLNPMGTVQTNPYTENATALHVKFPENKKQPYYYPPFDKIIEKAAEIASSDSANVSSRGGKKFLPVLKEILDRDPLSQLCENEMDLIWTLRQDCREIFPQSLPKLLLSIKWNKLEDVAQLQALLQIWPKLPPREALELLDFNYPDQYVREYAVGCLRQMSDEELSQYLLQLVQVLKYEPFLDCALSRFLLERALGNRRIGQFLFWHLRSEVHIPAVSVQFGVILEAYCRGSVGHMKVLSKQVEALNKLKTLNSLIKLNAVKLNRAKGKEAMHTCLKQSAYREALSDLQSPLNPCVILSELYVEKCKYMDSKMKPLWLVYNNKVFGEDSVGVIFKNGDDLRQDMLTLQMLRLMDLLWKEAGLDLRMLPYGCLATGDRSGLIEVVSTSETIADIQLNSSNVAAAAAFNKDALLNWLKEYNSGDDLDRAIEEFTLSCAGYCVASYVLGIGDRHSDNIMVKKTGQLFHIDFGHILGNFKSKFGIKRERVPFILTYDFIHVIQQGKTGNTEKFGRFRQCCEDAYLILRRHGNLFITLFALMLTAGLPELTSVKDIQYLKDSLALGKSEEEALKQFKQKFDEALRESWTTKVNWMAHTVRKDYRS
Put plainly: PI3K beta kinase assay (Kinase-Glo luminescence). In kind it is biochemical. The procedure, abridged:
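p110β full-length/p85 iSH2 construct (BV-949), 25 nM, with 1 μM ATP and 10 μg/mL phosphatidylinositol in 10 mM Tris pH 7.5, 3 mM MgCl2, 50 mM NaCl, 0.05% CHAPS, 1 mM DTT. 60 min at room temperature; ATP remaining read by Kinase-Glo luminescence. IC50 from 8-point four-parameter logistic fit.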

The target in the next data set is T3, PI3K delta (Homo sapiens, UniProt O00329).
T3 construct: for the full-length p110-d subunit are generated and fused by overlapping PCR; p85(iSH2) fusion partner (see partner chain) (N); His tag (C); made in house; host or cells: baculovirus; Tn5 (Trichoplusia ni) or TiniPro insect cells
T3 sequence (O00329 with tags, fused parts or gaps limits assumed): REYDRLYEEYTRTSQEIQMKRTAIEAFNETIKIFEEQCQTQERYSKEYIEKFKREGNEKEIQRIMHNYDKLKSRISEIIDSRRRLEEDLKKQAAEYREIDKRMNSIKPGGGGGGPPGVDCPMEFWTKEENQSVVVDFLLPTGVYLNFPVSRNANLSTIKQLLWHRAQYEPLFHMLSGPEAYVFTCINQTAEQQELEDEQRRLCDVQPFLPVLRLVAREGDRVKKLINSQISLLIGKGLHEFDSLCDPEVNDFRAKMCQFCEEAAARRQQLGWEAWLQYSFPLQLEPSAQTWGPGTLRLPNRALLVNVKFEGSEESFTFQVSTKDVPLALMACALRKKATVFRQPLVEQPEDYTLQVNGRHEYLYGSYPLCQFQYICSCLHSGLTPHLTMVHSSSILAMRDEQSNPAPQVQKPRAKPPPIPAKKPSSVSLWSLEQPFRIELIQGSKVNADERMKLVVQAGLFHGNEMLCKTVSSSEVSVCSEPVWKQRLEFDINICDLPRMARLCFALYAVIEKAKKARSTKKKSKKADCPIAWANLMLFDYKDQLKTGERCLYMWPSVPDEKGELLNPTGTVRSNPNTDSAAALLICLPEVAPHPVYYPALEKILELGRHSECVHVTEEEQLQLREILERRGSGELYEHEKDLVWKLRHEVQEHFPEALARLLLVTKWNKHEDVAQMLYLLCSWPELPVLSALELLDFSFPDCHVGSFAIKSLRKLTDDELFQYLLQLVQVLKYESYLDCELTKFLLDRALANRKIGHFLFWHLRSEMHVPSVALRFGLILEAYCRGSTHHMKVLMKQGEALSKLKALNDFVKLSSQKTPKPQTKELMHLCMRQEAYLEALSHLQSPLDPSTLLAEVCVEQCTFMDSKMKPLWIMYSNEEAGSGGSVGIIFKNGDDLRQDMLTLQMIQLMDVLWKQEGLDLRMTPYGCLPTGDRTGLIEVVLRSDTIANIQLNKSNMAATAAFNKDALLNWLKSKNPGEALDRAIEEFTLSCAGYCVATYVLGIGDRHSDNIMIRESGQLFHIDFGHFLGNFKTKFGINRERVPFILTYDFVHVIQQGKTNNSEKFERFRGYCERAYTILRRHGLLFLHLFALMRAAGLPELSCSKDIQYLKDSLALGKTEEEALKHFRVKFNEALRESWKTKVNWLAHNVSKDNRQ
Put plainly: PI3K delta kinase assay (Kinase-Glo luminescence). The data set is classed as biochemical. The procedure, abridged:
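Recombinant p85(iSH2)-Gly linker-p110δ full-length construct (BV1060, C-terminal His tag) was used at 10 nM with 10 μg/mL phosphatidylinositol and 1 μM ATP in 10 mM Tris-HCl pH 7.5, 3 mM MgCl2, 50 mM NaCl, 0.05% CHAPS, 1 mM DTT. After 60 min at room temperature, remaining ATP was measured by Kinase-Glo luminescence.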

The next data set concerns the target T4, mTOR (Homo sapiens, UniProt P42345).
T4 construct: purchased Invitrogen Corporation (Carlsbad/CA, USA) PV4753
In words: Biochemical assay for m-TOR by TR-FRET. The following applies: 8 μM ATP, 400 nM GFP-4EBP1, 0.5 nM mTOR. The procedure, abridged:
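mTOR (0.5 nM) was incubated at rt with ATP (8 μM final) and GFP-4EBP1 (400 nM final) in 50 mM HEPES pH 7.5, 10 mM MnCl2, 50 mM NaCl, 1 mM EGTA, 1 mM DTT. EDTA stop with Tb3+-anti-p4EBP1 [pThr46] antibody (0.5 nM); TR-FRET read 15 min later.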

Values after ≈ are worked out from the molar mass of the structure shown. Some results are limits rather than exact numbers.

T1 sequence (P42336 with tags, fused parts or gaps limits assumed): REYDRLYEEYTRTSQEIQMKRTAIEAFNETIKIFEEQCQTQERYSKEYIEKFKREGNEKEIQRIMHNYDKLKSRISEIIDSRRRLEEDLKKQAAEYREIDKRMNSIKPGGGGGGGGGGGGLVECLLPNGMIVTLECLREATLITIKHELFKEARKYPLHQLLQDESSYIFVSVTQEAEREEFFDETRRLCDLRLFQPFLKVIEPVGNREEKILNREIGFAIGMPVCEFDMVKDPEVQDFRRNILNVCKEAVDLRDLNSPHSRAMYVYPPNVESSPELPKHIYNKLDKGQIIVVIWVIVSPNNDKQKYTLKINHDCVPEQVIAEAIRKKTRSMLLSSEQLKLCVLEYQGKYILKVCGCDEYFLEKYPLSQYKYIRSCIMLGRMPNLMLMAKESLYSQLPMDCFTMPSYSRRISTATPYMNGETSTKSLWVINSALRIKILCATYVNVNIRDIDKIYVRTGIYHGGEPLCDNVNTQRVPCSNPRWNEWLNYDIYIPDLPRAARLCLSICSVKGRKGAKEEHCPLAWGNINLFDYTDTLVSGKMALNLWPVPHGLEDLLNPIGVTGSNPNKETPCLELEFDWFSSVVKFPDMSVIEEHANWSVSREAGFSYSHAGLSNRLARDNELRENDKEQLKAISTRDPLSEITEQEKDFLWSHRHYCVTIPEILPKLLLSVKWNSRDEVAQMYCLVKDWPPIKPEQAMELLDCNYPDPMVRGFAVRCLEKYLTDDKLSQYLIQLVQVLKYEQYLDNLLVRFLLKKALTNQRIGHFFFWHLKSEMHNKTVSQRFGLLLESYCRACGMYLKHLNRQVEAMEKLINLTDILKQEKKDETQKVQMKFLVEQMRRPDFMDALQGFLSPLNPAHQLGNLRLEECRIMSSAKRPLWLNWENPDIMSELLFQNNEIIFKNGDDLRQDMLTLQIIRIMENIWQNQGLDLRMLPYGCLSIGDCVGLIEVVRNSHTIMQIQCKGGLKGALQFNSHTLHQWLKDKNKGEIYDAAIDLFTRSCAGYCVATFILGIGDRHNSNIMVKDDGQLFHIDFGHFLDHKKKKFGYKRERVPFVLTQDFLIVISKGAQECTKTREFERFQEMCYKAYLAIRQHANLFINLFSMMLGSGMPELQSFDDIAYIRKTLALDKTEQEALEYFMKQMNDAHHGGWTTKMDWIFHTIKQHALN
T4 sequence (P42345 1360-2549 limits assumed): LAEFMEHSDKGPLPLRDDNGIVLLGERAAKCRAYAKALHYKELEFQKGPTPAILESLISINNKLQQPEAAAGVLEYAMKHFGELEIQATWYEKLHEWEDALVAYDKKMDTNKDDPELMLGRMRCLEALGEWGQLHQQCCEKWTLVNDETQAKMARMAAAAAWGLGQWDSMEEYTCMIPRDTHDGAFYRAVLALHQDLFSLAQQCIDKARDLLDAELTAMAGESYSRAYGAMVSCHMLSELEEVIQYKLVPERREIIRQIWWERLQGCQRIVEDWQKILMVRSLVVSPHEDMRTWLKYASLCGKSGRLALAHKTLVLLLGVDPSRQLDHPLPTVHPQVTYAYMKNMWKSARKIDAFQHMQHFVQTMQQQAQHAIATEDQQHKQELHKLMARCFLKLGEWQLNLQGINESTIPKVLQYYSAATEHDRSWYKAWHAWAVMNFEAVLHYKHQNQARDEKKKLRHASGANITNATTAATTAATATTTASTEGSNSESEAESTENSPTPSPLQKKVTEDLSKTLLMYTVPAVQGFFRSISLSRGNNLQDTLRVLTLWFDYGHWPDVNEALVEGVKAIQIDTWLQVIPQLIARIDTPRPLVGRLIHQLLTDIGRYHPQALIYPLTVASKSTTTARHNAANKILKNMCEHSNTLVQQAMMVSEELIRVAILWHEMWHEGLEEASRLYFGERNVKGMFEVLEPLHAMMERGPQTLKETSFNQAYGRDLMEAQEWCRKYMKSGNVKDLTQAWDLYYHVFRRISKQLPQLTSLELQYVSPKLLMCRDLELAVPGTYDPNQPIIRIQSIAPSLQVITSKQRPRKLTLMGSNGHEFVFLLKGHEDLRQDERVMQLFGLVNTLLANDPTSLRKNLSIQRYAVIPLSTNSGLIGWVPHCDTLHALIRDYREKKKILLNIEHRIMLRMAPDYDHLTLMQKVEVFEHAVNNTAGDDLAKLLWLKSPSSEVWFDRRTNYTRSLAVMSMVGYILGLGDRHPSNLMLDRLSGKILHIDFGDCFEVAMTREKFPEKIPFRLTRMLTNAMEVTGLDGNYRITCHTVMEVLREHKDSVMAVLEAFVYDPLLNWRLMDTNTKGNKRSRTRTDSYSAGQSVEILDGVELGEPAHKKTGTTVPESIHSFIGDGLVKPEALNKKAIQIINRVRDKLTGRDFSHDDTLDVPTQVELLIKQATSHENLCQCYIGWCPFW

Turning to `Cc1nn(C)cc1-n1c(=O)n(C)c2cnc3ccc(-c4ccc(N(C)C)nc4)cc3c21` [Example 4.5, 8-(6-Dimethylamino-pyridin-3-yl)-1-(1,3-dimethyl-1H-pyrazol-4-yl)-3-methyl-1,3-dihydro-imidazo[4,5-c]quinolin-2-one], the solubility in “Solubility at pH 6.8” was determined as 0.007 mg/mL (≈ 16.9 µM). Further, the half-inhibitory concentration (IC50) turned out to be 0.023 µM on PI3K alpha, 0.213 µM on PI3K beta, 0.017 µM at PI3K delta and 0.022 µM at mTOR.

For `COc1ccc(-c2ccc3ncc4[nH]c(=O)n(-c5cn(C)nc5C)c4c3c2)cn1` [Example 109, 1-(1,3-Dimethyl-1H-pyrazol-4-yl)-8-(6-methoxy-pyridin-3-yl)-1,3-dihydro-imidazo[4,5-c]quinolin-2-one], in “Solubility at pH 6.8”, the solubility was 0.003 mg/mL (≈ 7.76 µM). Also, the IC50 on PI3K alpha came to 0.012 µM; on PI3K beta, 0.038 µM; at PI3K delta it was 0.019 µM; at mTOR it was 0.011 µM.

In the case of `CCNc1cc(-c2ccc3ncc4c(c3c2)n(-c2cn(C)nc2C)c(=O)n4C)cnc1CO` [Example 155.1, 1-(1,3-Dimethyl-1H-pyrazol-4-yl)-8-(5-ethylamino-6-hydroxymethyl-pyridin-3-yl)-3-methyl-1,3-dihydro-imidazo[4,5-c]quinolin-2-one], in “Solubility at pH 6.8”, the solubility turned out to be 0.073 mg/mL (≈ 165 µM). Moreover, the half-inhibitory concentration (IC50) on PI3K alpha worked out at 0.013 µM; on PI3K beta, 0.019 µM; on PI3K delta it was 0.014 µM; at mTOR it was 0.003 µM.

Regarding `Cc1nn(C(C)C)cc1-n1c(=O)n(C)c2cnc3ccc(-c4cncc(N)c4)cc3c21` [Example 45.3, 8-(5-Amino-pyridin-3-yl)-1-(1-isopropyl-3-methyl-1H-pyrazol-4-yl)-3-methyl-1,3-dihydro-imidazo[4,5-c]quinolin-2-one], the solubility in the data set “Solubility at pH 6.8” was 0.004 mg/mL (≈ 9.67 µM). The IC50 at PI3K alpha worked out at 0.076 µM; at PI3K beta it was 0.169 µM; on PI3K delta, 0.01 µM; on mTOR, 0.007 µM.

Regarding `Cc1nn(CC(=O)N2CCC2)cc1-n1c(=O)n(C)c2cnc3ccc(-c4cnc(N5CCCC5)nc4)cc3c21` [Example 247.2, 1-[1-(2-Azetidin-1-yl-2-oxo-ethyl)-3-methyl-1H-pyrazol-4-yl]-3-methyl-8-(2-pyrrolidin-1-yl-pyrimidin-5-yl)-1,3-dihydro-imidazo[4,5-c]quinolin-2-one], the solubility in the data set “Solubility at pH 6.8” was determined as 0.056 mg/mL (≈ 107 µM). The IC50 on PI3K alpha was found to be 0.038 µM; on PI3K delta, 0.794 µM; on mTOR, 0.012 µM.

With `COCCOc1cncc(-c2ccc3ncc4c(c3c2)n(-c2cn(C)nc2Cl)c(=O)n4C)c1` [Example 59.2, 1-(3-Chloro-1-methyl-1H-pyrazol-4-yl)-8-[5-(2-methoxy-ethoxy)-pyridin-3-yl]-3-methyl-1,3-dihydro-imidazo[4,5-c]quinolin-2-one], the solubility in “Solubility at pH 6.8” is 0.006 mg/mL (≈ 12.9 µM). Further, the half-maximal inhibitory concentration (IC50) stood at 0.005 µM on PI3K alpha, 0.019 µM at PI3K beta, 0.009 µM on PI3K delta and 0.026 µM on mTOR.

Turning to `Cc1cncc(-c2ccc3ncc4c(c3c2)n(-c2cn(C)nc2C)c(=O)n4C)c1` [Example 24, 1-(1,3-Dimethyl-1H-pyrazol-4-yl)-3-methyl-8-(5-methyl-pyridin-3-yl)-1,3-dihydro-imidazo[4,5-c]quinolin-2-one], the solubility in “Solubility at pH 6.8” was 0.025 mg/mL (≈ 65 µM). Also, the IC50 at PI3K alpha is 0.01 µM; at PI3K beta it was 0.026 µM; on PI3K delta it was 0.041 µM; at mTOR, 0.037 µM.

Regarding `COc1ccc(-c2ccc3ncc4c(c3c2)n(-c2cn(C)nc2C)c(=O)n4C)cn1` [Example 2.5, 1-(1,3-Dimethyl-1H-pyrazol-4-yl)-8-(6-methoxy-pyridin-3-yl)-3-methyl-1,3-dihydro-imidazo[4,5-c]quinolin-2-one], the solubility in the data set “Solubility at pH 6.8” was determined as 0.013 mg/mL (≈ 32.5 µM). In addition, the half-inhibitory concentration (IC50) on PI3K alpha was determined as 0.017 µM; on PI3K beta, 0.086 µM; on PI3K delta, 0.01 µM; on mTOR it was 0.009 µM.

In the case of `Cc1nn(C)cc1-n1c(=O)n(C)c2cnc3ccc(-c4ccnc(OC(C)C)c4)cc3c21` [Example 92, 1-(1,3-Dimethyl-1H-pyrazol-4-yl)-8-(2-isopropoxy-pyridin-4-yl)-3-methyl-1,3-dihydro-imidazo[4,5-c]quinolin-2-one], in the data set “Solubility at pH 6.8”, the solubility amounted to 0.007 mg/mL (≈ 16.3 µM). The IC50 worked out at 0.104 µM on PI3K alpha, 0.246 µM at PI3K beta, 0.127 µM at PI3K delta and 0.376 µM on mTOR.

As for `Cc1nn(C(C)C)cc1-n1c(=O)n(C)c2cnc3ccc(-c4cnc(N)c(F)c4)cc3c21` [Example 142.3, 8-(6-Amino-5-fluoro-pyridin-3-yl)-1-(1-isopropyl-3-methyl-1H-pyrazol-4-yl)-3-methyl-1,3-dihydro-imidazo[4,5-c]quinolin-2-one], the solubility in “Solubility at pH 6.8” amounted to 0.005 mg/mL (≈ 11.6 µM). For the same molecule, the IC50 was 0.025 µM on PI3K alpha, 0.385 µM at PI3K beta, 0.018 µM on PI3K delta and 0.017 µM at mTOR.

Turning to `CO[C@@H]1CCN(c2ccc(-c3ccc4ncc5c(c4c3)n(-c3cn(C)nc3C)c(=O)n5C)cn2)C1` [Example 213.1, 1-(1,3-Dimethyl-1H-pyrazol-4-yl)-8-[6-((R)-3-methoxy-pyrrolidin-1-yl)-pyridin-3-yl]-3-methyl-1,3-dihydro-imidazo[4,5-c]quinolin-2-one], in “Solubility at pH 6.8”, the solubility was determined as 0.217 mg/mL (≈ 462 µM). The results for the concentration for half-maximal inhibition (IC50) at PI3K alpha, at PI3K delta and at mTOR were 0.462 µM, 0.691 µM and 0.373 µM, respectively.

For `Cc1nn(C)cc1-n1c(=O)n(C)c2cnc3ccc(-c4ccc(OCCCO)nc4)cc3c21` [Example 108, 1-(1,3-Dimethyl-1H-pyrazol-4-yl)-8-[6-(3-hydroxy-propoxy)-pyridin-3-yl]-3-methyl-1,3-dihydro-imidazo[4,5-c]quinolin-2-one], in the data set “Solubility at pH 6.8”, the solubility amounted to 0.032 mg/mL (≈ 72 µM). Further, the half-maximal inhibitory concentration (IC50) came to 0.132 µM on PI3K alpha, 0.556 µM at PI3K delta and 0.06 µM on mTOR.

On to `CCOCc1ncc(-c2ccc3ncc4c(c3c2)n(-c2cn(C)nc2C)c(=O)n4C)cc1OC` [Example 196.2, 1-(1,3-Dimethyl-1H-pyrazol-4-yl)-8-(6-ethoxymethyl-5-methoxy-pyridin-3-yl)-3-methyl-1,3-dihydro-imidazo[4,5-c]quinolin-2-one], for which the solubility in the data set “Solubility at pH 6.8” is > 0.459 mg/mL. The values for the IC50 on PI3K alpha, at PI3K delta and on mTOR were 0.175 µM, 0.16 µM and 0.193 µM, respectively.

For the molecule `Cc1nn(C)cc1-n1c(=O)n(C)c2cnc3ccc(-c4ccc(-n5cccn5)cc4)cc3c21` [Example 51.1, 1-(1,3-Dimethyl-1H-pyrazol-4-yl)-3-methyl-8-(4-pyrazol-1-yl-phenyl)-1,3-dihydro-imidazo[4,5-c]quinolin-2-one], the solubility in the data set “Solubility at pH 6.8” amounted to 0.005 mg/mL (≈ 11.5 µM). Besides, the 50% inhibitory concentration (IC50) at PI3K alpha came to 0.023 µM; on PI3K delta, 0.118 µM; at mTOR it was 0.011 µM.

`CCOc1ccc(-c2ccc3ncc4c(c3c2)n(-c2cn(CC(=O)N(C)C)nc2C)c(=O)n4C)cn1` [Example 3.9, 2-{4-[8-(6-Ethoxy-pyridin-3-yl)-3-methyl-2-oxo-2,3-dihydro-imidazo[4,5-c]quinolin-1-yl]-3-methyl-pyrazol-1-yl}-N,N-dimethyl-acetamide]: in “Solubility at pH 6.8”, the solubility amounted to 0.065 mg/mL (≈ 134 µM). The 50% inhibitory concentration (IC50) at PI3K alpha was determined as 0.021 µM; on PI3K delta, 0.112 µM; on mTOR, 0.011 µM.

As for `CCNc1ncc(-c2ccc3ncc4c(c3c2)n(-c2c(C)nn(C)c2C)c(=O)n4C)cc1COC` [Example 206.2, 8-(6-Ethylamino-5-methoxymethyl-pyridin-3-yl)-3-methyl-1-(1,3,5-trimethyl-1H-pyrazol-4-yl)-1,3-dihydro-imidazo[4,5-c]quinolin-2-one], in the data set “Solubility at pH 6.8”, the solubility is > 0.472 mg/mL. The half-maximal inhibitory concentration (IC50) was found to be 0.186 µM at PI3K alpha, 0.432 µM on PI3K beta and 0.057 µM at PI3K delta.

Take `CCOc1ncc(-c2ccc3ncc4c(c3c2)n(-c2cn(C)nc2C)c(=O)n4C)cc1NC(C)=O` [Example 65, N-{5-[1-(1,3-Dimethyl-1H-pyrazol-4-yl)-3-methyl-2-oxo-2,3-dihydro-1H-imidazo[4,5-c]quinolin-8-yl]-2-ethoxy-pyridin-3-yl}-acetamide]: the solubility in “Solubility at pH 6.8” was 0.031 mg/mL (≈ 65.7 µM). Also, the IC50 is 0.46 µM on PI3K alpha, 0.175 µM on PI3K delta and 0.058 µM on mTOR.
